# ChEMBL document CHEMBL1143888, “Synthesis and structure-activity relationships of N-{1-[(6-fluoro-2-naphthyl)methyl]piperidin-4-yl}benzamide derivatives as novel CCR3 antagonists” (Bioorg Med Chem, 2008)
# Target: T1, C-C chemokine receptor type 1 (Homo sapiens) (UniProt P32246)
# T1 sequence (whole entry): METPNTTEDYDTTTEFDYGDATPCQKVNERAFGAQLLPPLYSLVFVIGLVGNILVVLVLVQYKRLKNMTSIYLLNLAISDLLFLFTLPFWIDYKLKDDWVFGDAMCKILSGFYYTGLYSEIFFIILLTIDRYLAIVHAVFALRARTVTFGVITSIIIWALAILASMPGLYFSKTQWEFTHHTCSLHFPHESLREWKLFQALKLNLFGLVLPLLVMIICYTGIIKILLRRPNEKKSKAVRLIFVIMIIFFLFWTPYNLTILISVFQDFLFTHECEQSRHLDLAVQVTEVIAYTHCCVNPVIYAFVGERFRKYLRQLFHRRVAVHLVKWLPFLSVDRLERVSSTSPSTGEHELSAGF
# Assay: Inhibition of CCR1 at 10 uM
row,inhibition,SMILES
1,40%,O=C(NC1C[C@@H]2CC[C@@H](C1)N2Cc1ccc2cc(F)ccc2c1)c1ccccc1-c1ccccc1 (relative stereo; 31)

# Target: T2, C-C chemokine receptor type 3 (Homo sapiens) (UniProt P51677)
# T2 sequence (whole entry): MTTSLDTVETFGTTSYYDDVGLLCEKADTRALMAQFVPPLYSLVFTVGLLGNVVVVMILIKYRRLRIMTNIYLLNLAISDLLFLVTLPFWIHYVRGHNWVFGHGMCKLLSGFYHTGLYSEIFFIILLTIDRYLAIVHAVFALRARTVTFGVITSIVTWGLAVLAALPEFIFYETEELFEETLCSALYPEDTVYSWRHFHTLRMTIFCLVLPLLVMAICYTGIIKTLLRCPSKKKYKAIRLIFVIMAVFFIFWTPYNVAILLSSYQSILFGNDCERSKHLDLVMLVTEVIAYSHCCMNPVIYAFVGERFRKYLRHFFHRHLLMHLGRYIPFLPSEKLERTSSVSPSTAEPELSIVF
# Assay: Antagonist activity at CCR3 expressed in B300-19 cells assessed as inhibition of eotaxin-induced calcium influx at 10 uM
# Format: functional, cell-based
row,inhibition,SMILES
1,31%,O=C(Nc1ccccc1)NC1CCN(Cc2ccc3cc(F)ccc3c2)CC1
2,27%,O=C(NC1CCN(Cc2ccc3cc(F)ccc3c2)CC1)c1ccc(-c2ccccc2)cc1
3,40%,O=C(NC1CCN(Cc2ccc3cc(F)ccc3c2)CC1)c1ccc(Oc2ccccc2)cc1

# Target: T3, C-C chemokine receptor type 3 (Homo sapiens, UniProt P51677)
# T3 sequence (P51677 whole entry): T2 sequence (whole entry)
# Assay: Antagonist activity at CCR3 expressed in B300-19 cells assessed as inhibition of eotaxin-induced calcium influx
# Format: functional, cell-based
row,SMILES,IC50
1,O=C(NC1CCN(Cc2ccc3cc(F)ccc3c2)CC1)c1cccc(F)c1,670 nM
2,COc1ccc(C(=O)NC2CCN(Cc3ccc4cc(F)ccc4c3)CC2)cc1,2400 nM
3,O=C(NC1CCN(C/C=C/c2ccc(F)cc2)CC1)c1ccccc1,3400 nM
4,O=C(NC1CCN(Cc2ccc3cc(F)ccc3c2)CC1)c1ccccc1Oc1ccccc1,95 nM
5,CC1(NC(=O)c2ccccc2-c2ccccc2)CCN(Cc2ccc3cc(F)ccc3c2)CC1,2800 nM
6,O=C(NC1CCN(Cc2ccc3cc(F)ccc3c2)CC1)c1cccc(Oc2ccccc2)c1,1100 nM
7,O=C(NC1CCN(Cc2ccc3cc(F)ccc3c2)CC1)c1ccccc1F,2900 nM
8,COc1ccccc1C(=O)NC1CCN(Cc2ccc3cc(F)ccc3c2)CC1,720 nM
9,COc1cccc(C(=O)NC2CCN(Cc3ccc4cc(F)ccc4c3)CC2)c1,3500 nM

# The remaining lines, values ahead:
row,IC50,SMILES
1,830 nM,O=S(=O)(NC1CCN(Cc2ccc3cc(F)ccc3c2)CC1)c1ccccc1
2,810 nM,CN(C(=O)c1ccccc1)C1CCN(Cc2ccc3cc(F)ccc3c2)CC1
3,600 nM,Fc1ccc2cc(CN3CCC(NCc4ccccc4)CC3)ccc2c1
4,4800 nM,O=C(Nc1ccccc1)OC1CCN(Cc2ccc3cc(F)ccc3c2)CC1
5,1700 nM,O=C(Nc1ccccc1)C1CCN(Cc2ccc3cc(F)ccc3c2)CC1
6,1300 nM,O=C(NC1CCN(Cc2ccc3cc(F)ccc3c2)CC1)c1ccccc1
